Among the data in US11702422B2, “Imidazopyridazines as modulators of IL-17” (Janssen Pharmaceutica NV, priority 2020, dated 2023) are IC50 values, retold here.

The test system of assay [1] is IL-17A-induced G-CSF production in human normal keratinocyte (NHK). In words: NHK Assay: IL-17A-induced G-CSF production in human normal keratinocytes. The class given is cell-based. The following applies: 24 h, adult normal human keratinocytes, IL-17A 5 ng/mL, simple average if tested more than once. The method in brief: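 Adult NHK, 3000-4000 cells/well; rhIL-17A + titrated cpd preincubated 1 h rt, then onto cells. Final: IL-17A 5 ng/mL, DMSO 0.2%, 5% FBS. 24 h, 37° C. G-CSF in supernatant by HTRF vs standard curve; IC50. Viability by CellTiter-Glo vs DMSO.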

Assay [2] has as its target IL-17A(FLAG-Tagged): IL-17RA(His-Tagged) (Homo sapiens, UniProt Q16552, K93Q). In words: IL-17A(FLAG-Tagged): IL-17RA(His-Tagged) Binding Disruption Eu-HTRF Assay. To be noted: IL-17A/IL-17RA binding disruption, simple average if tested more than once. The method in brief: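 IC50 comes from a one-site competition fit of the HTRF 665/620 nm ratio. Compound dilutions (2-fold, 22 points) were held 1 h rt with FLAG-tagged IL-17A dimer, then His-tagged IL-17RA plus Eu-cryptate anti-FLAG and D2 anti-His antibodies were added for 2 h rt.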
(In general: In TR-FRET formats the signal depends on donor and acceptor labels being close together.)

Structures can show the parent of a compound that is named as a salt.

Chain of UniProt Q16552 (Q16552 with tags, fused parts or gaps K93Q): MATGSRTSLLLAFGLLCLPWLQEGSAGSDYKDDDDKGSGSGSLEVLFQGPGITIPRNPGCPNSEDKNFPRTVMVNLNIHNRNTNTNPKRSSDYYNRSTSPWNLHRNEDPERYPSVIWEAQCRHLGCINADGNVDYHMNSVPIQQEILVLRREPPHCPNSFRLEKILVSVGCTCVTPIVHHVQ

As to `CC(C(F)F)n1ncnc1C(=O)N[C@H](c1cn2ncc([C@H](NC(=O)CCC(F)(F)F)C3CC3)cc2n1)C1CCC(F)(F)CC1` (stereo partly drawn) [Example 479, N—((S)-(7-((R)-Cyclopropyl(4,4,4-trifluorobutanamido)methyl)imidazo[1,2-b]pyridazin-2-yl)(4,4-difluorocyclohexyl)methyl)-1-(1,1-difluoropropan-2-yl)-1H-1,2,4-triazole-5-carboxamide], the IC50 (as a rule, the concentration needed to halve the response being measured) turned out to be 0.43 µM in assay [1] (Homo sapiens, Keratinocyte) and 0.19 µM in assay [2].

For the compound `CC(C)n1nccc1C(=O)N[C@H](c1cn2ncc([C@@H](NC(=O)C[C@H]3CC3(F)F)C3CC3)cc2n1)C1CCC(F)(F)CC1` (single isomer, unassigned) [Example 138], the IC50 in assay [1] (Homo sapiens, Keratinocyte) turned out to be 1.3 µM; in assay [2] it was 0.78 µM.

On to `CC(C)c1conc1C(=O)N[C@H](c1cn2ncc([C@H](NC(=O)CCC(F)(F)F)C3CC3)cc2n1)C1CCC(F)(F)CC1` [Example 378, N—((S)-(7-((R)-Cyclopropyl(4,4,4-trifluorobutanamido)methyl)imidazo[1,2-b]pyridazin-2-yl)(4,4-difluorocyclohexyl)methyl)-4-isopropylisoxazole-3-carboxamide], for which the IC50 in assay [1] (Homo sapiens, Keratinocyte) amounted to 0.095 µM; in assay [2] it was 0.055 µM.

For `O=C(CCC(F)(F)F)N[C@@H](c1cnn2cc([C@@H](NC(=O)[C@H]3C(F)(F)C34CCC4)C3CCC(F)(F)CC3)nc2c1)C1CC1` (relative stereo) [Example 368, (S*)—N—((S)-(7-((R*)-Cyclopropyl(4,4,4-trifluorobutanamido)methyl)imidazo[1,2-b]pyridazin-2-yl)(4,4-difluorocyclohexyl)methyl)-2,2-difluorospiro[2.3]hexane-1-carboxamide], the IC50 came to 9.8 µM in assay [1] (Homo sapiens, Keratinocyte) and 1.6 µM in assay [2].

As to `O=C(CCC(F)(F)F)N[C@@H](c1cnn2cc([C@@H](NC(=O)c3nnn(CC(F)F)c3C(F)(F)F)C3CCC(F)(F)CC3)nc2c1)C1CC1` [Example 109, N—((S)-(7-((R)-Cyclopropyl(4,4,4-trifluorobutanamido)methyl)imidazo[1,2-b]pyridazin-2-yl)(4,4-difluorocyclohexyl)methyl)-1-(2,2-difluoroethyl)-5-(trifluoromethyl)-1H-1,2,3-triazole-4-carboxamide], the IC50 in assay [1] (Homo sapiens, Keratinocyte) was 20 µM; in assay [2], 0.44 µM.

`CC(CC(=O)N[C@@H](c1cnn2cc([C@@H](NC(=O)c3ccnn3C(C)C)C3CCC(F)(F)CC3)nc2c1)C1CC1)C(F)F` (stereo partly drawn) [Example 262, N-((1S)-(7-((1R)-Cyclopropyl(4,4-difluoro-3-methylbutanamido)methyl)imidazo[1,2-b]pyridazin-2-yl)(4,4-difluorocyclohexyl)methyl)-1-isopropyl-1H-pyrazole-5-carboxamide]: the IC50 in assay [1] (Homo sapiens, Keratinocyte) worked out at 0.12 µM; in assay [2], 0.12 µM.

With `Cc1nonc1C(=O)N[C@H](c1cn2ncc([C@H](NC(=O)C(F)C3CCC3)C3CC3)cc2n1)C1CCC(F)(F)CC1` (single isomer, unassigned) [Example 348, N—((S)-(7-((R)-((R*)-2-Cyclobutyl-2-fluoroacetamido)(cyclopropyl)methyl)imidazo[1,2-b]pyridazin-2-yl)(4,4-difluorocyclohexyl)methyl)-4-methyl-1,2,5-oxadiazole-3-carboxamide], the IC50 is 0.22 µM in assay [1] and 0.069 µM in assay [2].

With `CC(C)n1nccc1C(=O)N[C@H](c1cn2ncc([C@H](NC(=O)CC3(C(F)(F)F)CC3)C3CC3)cc2n1)C1CCC(F)(F)CC1` [Example 244, N—((S)-(7-((R)-Cyclopropyl(2-(1-(trifluoromethyl)cyclopropyl)acetamido)methyl)imidazo[1,2-b]pyridazin-2-yl)(4,4-difluorocyclohexyl)methyl)-1-isopropyl-1H-pyrazole-5-carboxamide], the IC50 was 0.12 µM in assay [1] (Homo sapiens, Keratinocyte) and 0.14 µM in assay [2].

With `Cc1nonc1C(=O)N[C@H](c1cn2ncc([C@H](NC(=O)CCC3CC3(F)F)C3CC3)cc2n1)C1CCC(F)(F)CC1` (stereo partly drawn) [Example 290, N-((1S)-(7-((1R)-Cyclopropyl(3-(2,2-difluorocyclopropyl)propanamido)methyl)imidazo[1,2-b]pyridazin-2-yl)(4,4-difluorocyclohexyl)methyl)-4-methyl-1,2,5-oxadiazole-3-carboxamide], the IC50 in assay [1] (Homo sapiens, Keratinocyte) was 0.22 µM; in assay [2], 0.083 µM.

As to `O=C(CC1CC(F)(F)C1)N[C@@H](c1cnn2cc([C@@H](NC(=O)[C@H]3C[C@@H]3C(F)(F)F)C3CCC(F)(F)CC3)nc2c1)C1CC1` (relative stereo) [Example 143, (Trans-1S*,2S*)—N—((S)-(7-((R)-Cyclopropyl(2-(3,3-difluorocyclobutyl)acetamido)methyl)imidazo[1,2-b]pyridazin-2-yl)(4,4-difluorocyclohexyl)methyl)-2-(trifluoromethyl)cyclopropane-1-carboxamide], the IC50 in assay [1] (Homo sapiens, Keratinocyte) came to 0.45 µM; in assay [2], 0.13 µM.

For `Cc1nonc1C(=O)N[C@H](c1cn2ncc([C@H](NC(=O)CC(C)C(F)F)C3CC3)cc2n1)C1CCC(F)(F)CC1` (single isomer, unassigned) [Example 264, N—((S)-(7-((R)-Cyclopropyl((R*)-4,4-difluoro-3-methylbutanamido)methyl)imidazo[1,2-b]pyridazin-2-yl)(4,4-difluorocyclohexyl)methyl)-4-methyl-1,2,5-oxadiazole-3-carboxamide], the 50% inhibitory concentration (IC50) in assay [1] is 0.35 µM; in assay [2], 0.048 µM.

On to `O=C(N[C@H](c1cn2ncc(CNC(=O)[C@H]3NCCC[C@@H]3C(F)(F)F)cc2n1)C1CCCCC1)c1ccccc1` (relative stereo) [Example 2, (Trans-2S*,3S*)—N-((2-((S)-benzamido(cyclohexyl)methyl)imidazo[1,2-b]pyridazin-7-yl)methyl)-3-(trifluoromethyl)piperidine-2-carboxamide hydrochloride], for which the IC50 in assay [1] (Homo sapiens, Keratinocyte) is greater than 20 µM; in assay [2], 7.6 µM.

For `CC(C)n1nccc1C(=O)N[C@@H](COC(C)(C)C)c1cn2ncc([C@H](NC(=O)CC3CC(F)(F)C3)C3CC3)cc2n1` [Example 318, N—((R)-2-(tert-Butoxy)-1-(7-((R)-cyclopropyl(2-(3,3-difluorocyclobutyl)acetamido)methyl)imidazo[1,2-b]pyridazin-2-yl)ethyl)-1-isopropyl-1H-pyrazole-5-carboxamide], the IC50 stood at 0.48 µM in assay [1] (Homo sapiens, Keratinocyte) and 0.27 µM in assay [2].

Turning to `COCCn1ncc(C(=O)N[C@H](c2cn3ncc([C@H](NC(=O)CCC(F)(F)F)C4CC4)cc3n2)C2CCC(F)(F)CC2)n1` [Example 64, N—((S)-(7-((R)-Cyclopropyl(4,4,4-trifluorobutanamido)methyl)imidazo[1,2-b]pyridazin-2-yl)(4,4-difluorocyclohexyl)methyl)-2-(2-methoxyethyl)-2H-1,2,3-triazole-4-carboxamide], the IC50 in assay [1] (Homo sapiens, Keratinocyte) came to 2 µM; in assay [2] it was 0.63 µM.

For `CC(C)n1nccc1C(=O)N[C@H](c1cn2ncc([C@H](NC(=O)COC(F)(F)F)C3CC3)cc2n1)C1CCC(F)(F)CC1` [Example 276, N—((S)-(7-((R)-Cyclopropyl(2-(trifluoromethoxy)acetamido)methyl)imidazo[1,2-b]pyridazin-2-yl)(4,4-difluorocyclohexyl)methyl)-1-isopropyl-1H-pyrazole-5-carboxamide], the IC50 in assay [1] (Homo sapiens, Keratinocyte) stood at 0.14 µM; in assay [2], 0.15 µM.

For `O=C(N[C@H](c1cn2ncc([C@H](NC(=O)[C@@H](O)CC(F)(F)F)C3CC3)cc2n1)C1CCC(F)(F)CC1)c1cnn(CC(F)(F)F)n1` (relative stereo) [Example 31, N—((S)-(7-((R*)-Cyclopropyl((S*)-4,4,4-trifluoro-2-hydroxybutanamido)methyl)imidazo[1,2-b]pyridazin-2-yl)(4,4-difluorocyclohexyl)methyl)-2-(2,2,2-trifluoroethyl)-2H-1,2,3-triazole-4-carboxamide], the IC50 in assay [1] (Homo sapiens, Keratinocyte) was found to be 1.3 µM; in assay [2], 0.36 µM.

Regarding `O=C(CC1CC(F)(F)C1)N[C@@H](c1cnn2cc([C@@H](NC(=O)c3nonc3C(O)C3CC3)C3CCC(F)(F)CC3)nc2c1)C1CC1` (single isomer, unassigned) [Example 402, N—((S)-(7-((R)-Cyclopropyl(2-(3,3-difluorocyclobutyl)acetamido)methyl)imidazo[1,2-b]pyridazin-2-yl)(4,4-difluorocyclohexyl)methyl)-4-((S*)-cyclopropyl(hydroxy)methyl)-1,2,5-oxadiazole-3-carboxamide], the IC50 in assay [1] and in assay [2] was 0.11 µM in each case.

`O=C(CCC(F)(F)F)N[C@@H](c1cnn2cc([C@@H](NC(=O)[C@@H]3C[C@H]3F)C3CCC(F)(F)CC3)nc2c1)C1CC1` [Example 90, (1S,2R)—N—((S)-(7-((R)-Cyclopropyl(4,4,4-trifluorobutanamido)methyl)imidazo[1,2-b]pyridazin-2-yl)(4,4-difluorocyclohexyl)methyl)-2-fluorocyclopropane-1-carboxamide]: the IC50 in assay [1] (Homo sapiens, Keratinocyte) was roughly 20 µM; in assay [2] it was 1.5 µM.

With `O=C(CCC(F)(F)F)N[C@@H](c1cnn2cc([C@@H](NC(=O)c3cccc(OCC(F)(F)F)c3)C3CCC(F)(F)CC3)nc2c1)C1CC1` [Example 174, N—((S)-(7-((R)-Cyclopropyl(4,4,4-trifluorobutanamido)methyl)imidazo[1,2-b]pyridazin-2-yl)(4,4-difluorocyclohexyl)methyl)-3-(2,2,2-trifluoroethoxy)benzamide], the IC50 in assay [1] (Homo sapiens, Keratinocyte) was 0.39 µM; in assay [2], 0.08 µM.
